# Results as given in patent US11666575B2, “Pyrazolo[1,5]pyrimidine-based compounds and methods of their use to treat viral infections” (Lexicon Pharmaceuticals, Inc., priority 2020, dated 2023).
# Where “and” joins values, the source holds several entries; their conditions need not be identical. Identical values can stand only once. Like-named read-outs stand apart in the source and are kept apart here.
# Key:
# [1] = in vitro; conditions: human, uninfected MRC-5 cells
# [2] = test system: H292 cells (NCI-H292); test: Cytotoxicity in uninfected H292 cells (MTT)
# [3] = test system: HCoV-OC43 (Betacoronavirus 1); test: microbe, parasite or virus in culture; assay type: cell-based; conditions: for EC50: read-out: Efficacy
# [4] = Cytotoxicity / viability of uninfected Huh-7 cells (XTT); conditions: human, uninfected Huh-7 cells
# [5] = test system: Huh-7 cells; test: as above; conditions: for Viability (A490): cytotoxic control, raw data, Huh-7
# [6] = test system: alpha coronavirus 229E (CoV-229E); test: Inhibition of CoV-229E-induced CPE in MRC-5 cells (XTT); conditions: CPE reduction, CoV-229E in MRC-5 cells, 6 days
# [7] = test system: HCoV-OC43; test: OC43 CPE assay in Huh-7 cells (neutral red uptake); assay type: cell-based, Human coronavirus OC43
smiles,measurement,setting,value
CCN(CC)CCNC(=O)c1c(C)[nH]c(/C=C2\C(=O)Nc3ccc(F)cc32)c1C [Sunitinib],CC50 at 6 days,[1],1320 nM
same,Cytotoxicity,[2],10 to 50 µM
same,EC50,"[3]; Betacoronavirus 1, NCI-H292, 144 h, EC50, HCoV-OC43-infected H292 cells, MTT, 6 days",406 nM
CC[C@H]1CN2CCc3cc(OC)c(OC)cc3[C@@H]2C[C@@H]1C[C@H]1NCCc2cc(OC)c(OC)cc21 [Emetine],"cytotoxicity at 6 days, 5 μM",[4],> 90%
same,"viability at 6 days, 1 µM",[4],18.3 ± 0.3%
same,"viability at 6 days, 5 µM",[4],8.2 ± 0.7%
same,Viability (A490),[5]; 1 μm,0.176 and 0.179
same,Viability (A490),[5]; 5 μm,0.104 and 0.111
same,inhibition of cell viability,"[5]; tested at 5 μM, XTT",more than 90%
CCN(CC)CCCC(C)Nc1ccnc2cc(Cl)ccc12 (stereo not drawn) [Chloroquine],EC50,[6],490 nM
same,prevention of virus-induced CPE,"[7]; 6-day assay, Huh-7 cells",potently prevented the virus-induced CPE
same,inhibition at 5 µM,"[7]; Betacoronavirus 1, OC43, Huh-7, read-out: Inhibition of OC43 Virus-Induced CPE in Huh-7 Cells, 5 μM, control inhibitor, relative to uninfected cells (mock)",~88%
same,Cytotoxicity,"[2]; CC50, uninfected H292 cells, MTT, 6 days",46.04 µM
same,EC50,"[3]; Betacoronavirus 1, OC43, NCI-H292, 144 h",400 nM
same,antiviral effect against β-coronavirus OC43 in H292 cells,"[3]; H292 cells, 6 days",antiviral effect
